# Measurements published in patent US20240101576A1, “HETEROCYCLIC INHIBITORS OF EGFR AND/OR HER2, FOR USE IN THE TREATMENT OF CANCER” (Scorpion Therapeutics, Inc., priority 2020, published 2024).
# Columns and labels:
# Type in all cases: cell-based
# [1] = target: T1, EGFR exon 20 SVD Ins D770_N771 (Ba/F3 cells) (Homo sapiens, UniProt P00533, INS770SVD); assay: Inhibitor activity on EGFR-dependent cell growth (CellTiter-Glo, 72 h), Ba/F3 EGFR exon 20 SVD Ins; settings: read-out: BaF3 SVD IC50
# T1 construct: expressed in transfected cells; host or cells: Ba/F3 (murine pro-B cells), retroviral transduction, puromycin selection, IL3-independent pool
# T1 sequence (P00533 with tags, fused parts or gaps INS770SVD): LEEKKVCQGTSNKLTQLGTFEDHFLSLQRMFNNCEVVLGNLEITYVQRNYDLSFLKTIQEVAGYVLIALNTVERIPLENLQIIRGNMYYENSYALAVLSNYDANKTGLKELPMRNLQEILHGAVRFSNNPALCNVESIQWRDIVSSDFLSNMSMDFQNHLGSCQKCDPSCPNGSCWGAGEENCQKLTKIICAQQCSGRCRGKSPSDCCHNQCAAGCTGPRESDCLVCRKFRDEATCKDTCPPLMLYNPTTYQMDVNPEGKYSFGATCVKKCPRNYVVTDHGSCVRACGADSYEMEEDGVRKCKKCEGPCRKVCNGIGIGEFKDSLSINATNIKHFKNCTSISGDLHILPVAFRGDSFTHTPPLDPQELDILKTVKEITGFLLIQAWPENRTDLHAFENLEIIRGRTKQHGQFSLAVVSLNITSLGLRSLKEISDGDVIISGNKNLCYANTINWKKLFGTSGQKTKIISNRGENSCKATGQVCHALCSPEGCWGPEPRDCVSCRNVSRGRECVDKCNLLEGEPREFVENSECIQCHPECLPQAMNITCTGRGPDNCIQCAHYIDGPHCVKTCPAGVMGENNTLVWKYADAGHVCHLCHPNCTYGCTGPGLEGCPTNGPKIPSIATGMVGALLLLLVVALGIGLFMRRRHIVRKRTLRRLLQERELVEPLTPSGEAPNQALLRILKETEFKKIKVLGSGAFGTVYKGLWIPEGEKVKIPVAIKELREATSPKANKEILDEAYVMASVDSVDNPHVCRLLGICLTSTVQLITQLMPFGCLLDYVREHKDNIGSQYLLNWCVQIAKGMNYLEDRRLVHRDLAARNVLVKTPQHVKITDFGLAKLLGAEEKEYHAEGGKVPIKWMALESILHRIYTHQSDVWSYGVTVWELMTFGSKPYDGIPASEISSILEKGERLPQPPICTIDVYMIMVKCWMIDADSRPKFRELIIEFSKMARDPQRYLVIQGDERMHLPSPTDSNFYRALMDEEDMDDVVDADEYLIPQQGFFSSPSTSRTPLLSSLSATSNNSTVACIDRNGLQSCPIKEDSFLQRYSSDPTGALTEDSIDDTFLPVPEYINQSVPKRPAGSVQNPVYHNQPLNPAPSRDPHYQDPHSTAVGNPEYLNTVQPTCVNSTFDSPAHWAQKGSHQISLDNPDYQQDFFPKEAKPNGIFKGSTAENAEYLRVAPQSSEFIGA
# Outline: (§1)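 IC50s derive from a sigmoidal dose–response fit of CellTiter-Glo signal. The signal was normalised between […]-treated cells and cell-free medium. Ba/F3 mutant-EGFR cells, seeded at 400–800/well depending on the line, had 72 h of exposure to a 10-point, 3-fold compound series.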
# [2] = target: T2, EGFR L858R/C797S (Ba/F3 cells) (Homo sapiens, UniProt P00533, C797S/L858R); assay: Inhibitor activity on EGFR phosphorylation (pEGFR AlphaLISA, 2 h), Ba/F3 EGFR L858R/C797S
# T2 construct: expressed in transfected cells; host or cells: Ba/F3 (murine pro-B cells), retroviral transduction, puromycin selection, IL3-independent pool
# T2 sequence (P00533 25-1210 C797S/L858R): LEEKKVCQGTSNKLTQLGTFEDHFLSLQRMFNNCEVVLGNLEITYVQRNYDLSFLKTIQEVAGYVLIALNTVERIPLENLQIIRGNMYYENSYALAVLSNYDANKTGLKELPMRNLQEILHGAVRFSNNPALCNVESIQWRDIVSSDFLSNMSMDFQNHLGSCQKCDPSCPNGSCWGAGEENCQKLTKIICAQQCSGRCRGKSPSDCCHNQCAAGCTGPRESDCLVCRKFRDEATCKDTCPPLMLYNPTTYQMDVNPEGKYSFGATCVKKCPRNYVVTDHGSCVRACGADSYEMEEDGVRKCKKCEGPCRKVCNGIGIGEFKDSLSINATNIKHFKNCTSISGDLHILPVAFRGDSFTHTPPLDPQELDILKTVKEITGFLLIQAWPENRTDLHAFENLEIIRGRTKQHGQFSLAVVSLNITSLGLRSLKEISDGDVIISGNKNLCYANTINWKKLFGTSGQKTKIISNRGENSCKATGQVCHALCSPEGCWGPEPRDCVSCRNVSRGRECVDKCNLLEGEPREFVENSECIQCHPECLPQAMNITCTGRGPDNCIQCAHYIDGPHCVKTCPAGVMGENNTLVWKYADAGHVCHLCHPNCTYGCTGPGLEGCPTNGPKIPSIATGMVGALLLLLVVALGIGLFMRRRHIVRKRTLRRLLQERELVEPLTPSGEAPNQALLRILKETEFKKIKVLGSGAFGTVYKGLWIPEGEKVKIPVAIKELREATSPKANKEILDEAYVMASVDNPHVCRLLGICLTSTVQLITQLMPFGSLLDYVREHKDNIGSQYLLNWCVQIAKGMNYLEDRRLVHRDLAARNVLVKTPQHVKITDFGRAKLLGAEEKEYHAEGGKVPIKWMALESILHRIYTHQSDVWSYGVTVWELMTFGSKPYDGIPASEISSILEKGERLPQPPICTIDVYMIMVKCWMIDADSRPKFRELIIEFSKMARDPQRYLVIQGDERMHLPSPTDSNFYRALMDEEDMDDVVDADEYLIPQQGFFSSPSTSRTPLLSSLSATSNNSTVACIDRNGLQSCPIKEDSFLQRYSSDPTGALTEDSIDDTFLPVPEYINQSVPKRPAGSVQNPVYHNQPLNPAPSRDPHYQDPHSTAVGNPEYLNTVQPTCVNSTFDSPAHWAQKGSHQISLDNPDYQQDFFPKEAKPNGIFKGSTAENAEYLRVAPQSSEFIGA
# Outline: (§2)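 IC50 values reflect inhibition of cellular EGFR phosphorylation, measured by AlphaLISA in lysates. Engineered Ba/F3 pools expressing mutant EGFR, selected with puromycin and cultured IL3-free, or CUTO14 cells, were exposed to compound for 2 hours.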
# [3] = target: T2, EGFR L858R/C797S (Ba/F3 cells); assay: Inhibitor activity on EGFR-dependent cell growth (CellTiter-Glo, 72 h), Ba/F3 EGFR L858R/C797S; settings: read-out: BaF3 L858R/C797S IC50
# Outline: (§3)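 Mutant EGFR drives IL3-independent growth of engineered Ba/F3 pools. L858R cells go in at 400/well, L858R/C797S at 600, and exon 19del or FQEA insertion at 800. After 72 h with compound, plates are equilibrated 15 min at RT. Reagent is added 1:1, followed by 30 min and a luminescence read.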
# [4] = target: T3, EGFR exon 20 ASV Ins V769_D770 (Ba/F3 cells) (Homo sapiens, UniProt P00533, INS769ASV); assay: Inhibitor activity on EGFR phosphorylation (pEGFR AlphaLISA, 2 h), Ba/F3 EGFR exon 20 ASV Ins; settings: EGFR phosphorylation, AlphaLISA, 2 hours; read-out: ASV IC50 (pEGFR)
# T3 construct: expressed in transfected cells; host or cells: Ba/F3 (murine pro-B cells), retroviral transduction, puromycin selection, IL3-independent pool
# T3 sequence (P00533 with tags, fused parts or gaps INS769ASV): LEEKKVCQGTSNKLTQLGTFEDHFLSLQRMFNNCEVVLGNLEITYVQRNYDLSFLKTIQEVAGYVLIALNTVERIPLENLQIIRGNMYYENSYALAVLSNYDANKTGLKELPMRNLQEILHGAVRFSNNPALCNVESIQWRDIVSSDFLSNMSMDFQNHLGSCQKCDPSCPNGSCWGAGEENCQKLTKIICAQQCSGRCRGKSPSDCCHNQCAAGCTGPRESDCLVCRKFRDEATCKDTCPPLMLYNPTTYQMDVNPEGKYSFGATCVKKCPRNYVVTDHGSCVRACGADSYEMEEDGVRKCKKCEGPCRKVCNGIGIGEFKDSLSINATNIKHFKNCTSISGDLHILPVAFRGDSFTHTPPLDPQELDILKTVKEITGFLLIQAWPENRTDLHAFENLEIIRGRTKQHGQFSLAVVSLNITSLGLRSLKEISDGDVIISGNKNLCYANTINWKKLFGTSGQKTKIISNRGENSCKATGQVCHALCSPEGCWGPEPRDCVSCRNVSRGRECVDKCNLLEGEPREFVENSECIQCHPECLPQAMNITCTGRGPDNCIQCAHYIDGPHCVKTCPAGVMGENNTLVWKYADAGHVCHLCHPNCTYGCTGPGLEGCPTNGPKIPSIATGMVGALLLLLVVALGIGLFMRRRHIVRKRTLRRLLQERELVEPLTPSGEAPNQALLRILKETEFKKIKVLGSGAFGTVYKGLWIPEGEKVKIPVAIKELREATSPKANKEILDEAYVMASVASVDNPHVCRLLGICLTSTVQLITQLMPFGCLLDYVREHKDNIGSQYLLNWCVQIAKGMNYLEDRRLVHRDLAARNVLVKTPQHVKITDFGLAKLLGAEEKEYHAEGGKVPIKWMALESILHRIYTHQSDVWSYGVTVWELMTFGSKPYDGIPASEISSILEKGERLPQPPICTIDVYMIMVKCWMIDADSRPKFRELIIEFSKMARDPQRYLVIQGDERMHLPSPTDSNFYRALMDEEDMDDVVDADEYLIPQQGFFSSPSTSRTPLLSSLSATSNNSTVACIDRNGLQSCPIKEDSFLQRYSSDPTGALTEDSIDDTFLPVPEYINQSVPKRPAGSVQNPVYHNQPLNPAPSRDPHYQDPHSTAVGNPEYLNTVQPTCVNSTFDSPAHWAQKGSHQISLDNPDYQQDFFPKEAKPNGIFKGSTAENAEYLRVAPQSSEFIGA
# Outline: as §2
# [5] = target: T4, EGFR exon 20 NPG Ins D770_N771 (Ba/F3 cells) (Homo sapiens, UniProt P00533, INS770NPG); assay: Inhibitor activity on EGFR phosphorylation (pEGFR AlphaLISA, 2 h), Ba/F3 EGFR exon 20 NPG Ins
# T4 construct: expressed in transfected cells; host or cells: Ba/F3 (murine pro-B cells), retroviral transduction, puromycin selection, IL3-independent pool
# Outline: as §2
# [6] = target: T5, EGFR exon 19del (Ba/F3 cells) (Homo sapiens, UniProt P00533); assay: Inhibitor activity on EGFR-dependent cell growth (CellTiter-Glo, 72 h), Ba/F3 EGFR exon 19del; settings: Ba/F3 EGFR exon 19del cell growth, read-out: BaF3 Del19 IC50
# Outline: as §3
# EGFR (CUTO14 cells) = EGFR (CUTO14 cells) (Homo sapiens, UniProt P00533); assay: Inhibitor activity on EGFR phosphorylation (pEGFR AlphaLISA, 2 h), CUTO14 cells
# Outline: as §2
# [7] = target: T3, EGFR exon 20 ASV Ins V769_D770 (Ba/F3 cells); assay: Inhibitor activity on EGFR-dependent cell growth (CellTiter-Glo, 72 h), Ba/F3 EGFR exon 20 ASV Ins; settings: read-out: BaF3 ASV IC50
# Outline: as §1
# [8] = target: T1, EGFR exon 20 SVD Ins D770_N771 (Ba/F3 cells); assay: Inhibitor activity on EGFR phosphorylation (pEGFR AlphaLISA, 2 h), Ba/F3 EGFR exon 20 SVD Ins
# Excerpt: Example B. Inhibitor Activity on EGFR phosphorylation (pEGFR)
# EGFR mutant Ba/F3 cells were generated by transduction with retrovirus containing vectors expressing EGFR L858R, EGFR exon 19del, EGFR L858R/C797S, EGFR exon 20 NPG Ins D770_N771, EGFR exon 20 ASV Ins V769_D770, or EGFR exon 20 SVD Ins D770_N771 genes along with a puromycin selection marker. Transduced cells are selected with puromycin for 7 days and are then be transferred into culture media without Interleukin 3 (IL3). Surviving cells are confirmed to express EGFR by Western blot and maintained as a pool. CUTO14 cells were obtained from Dr. Robert C. Doebele at the University of Colorado. The IC50 date are included in Table 6 and Table 7.
# 1.1 Cells are harvested from flask into cell culture medium and the cell number counted.
# 1.2 Cells are diluted with culture medium to the desired density and 40 μL of cell suspension is added into each well of 384-well cell culture plate and the seeding density is 50K cells/well (Ba/F3) or 12.5K cells/well (CUTO14).
# 2 Compound Preparation and Treatment
# 2.1 Test compounds are dissolved to 10 mM in a DMSO stock solution. 45 μL of stock solution is transferred to a 384 polypropylene plate (pp-plate). Perform 3-fold, 10-point dilution via transferring 15 μL compound into 30 μL DMSO using a TECAN (EVO200) liquid handler.
# 2.2 Spin plates at room temperature at 1,000 RPM for 1 minute.
# 2.3 Transfer 5 nL of diluted compound from compound source plate into the cell plate.
# 2.4 After compound treatment for 2 hours, perform pEGFR detection by AlphaLISA for compound treatment plates as described in “Detection” section.
# 3 Detection by pEGFR AlphaLISA (Perkin-Elmer)
# 3.1 Plates are removed from incubators and equilibrated at room temperature for 10 minutes, and media was removed
# 3.2 10 μL of lysis buffer is added and plates shaken at 600 rpm for 1 hr.
# 3.3 Prepare acceptor mix just before use and dispense 5 μL of acceptor mix to all the wells. Shake 350 rpm for Ihr in the dark
# 3.4 Prepare donor mix under low light conditions prior to use. Dispense 5 μL of donor mix to all the wells. Mix well on the shaker, seal and wrap in aluminum foil and incubate 1.5 hrs at room temperature in the dark
# 3.5 Transfer 18.5 μL mixture to OptiPlate 384, and read using an Envision. The IC50 date were included in Table 6 and Table 7.
# EGFR L858R (Ba/F3 cells) [9] = target: T6, EGFR L858R (Ba/F3 cells) (Homo sapiens, UniProt P00533, L858R); assay: Inhibitor activity on EGFR phosphorylation (pEGFR AlphaLISA, 2 h), Ba/F3 EGFR L858R
# T6 construct: expressed in transfected cells; host or cells: Ba/F3 (murine pro-B cells), retroviral transduction, puromycin selection, IL3-independent pool
# Outline: as §2
# EGFR WT (Ba/F3 cells) = target: T7, EGFR WT (Ba/F3 cells) (Homo sapiens, UniProt P00533); assay: Inhibitor activity on EGFR-dependent cell growth (CellTiter-Glo, 72 h), Ba/F3 EGFR WT; settings: read-out: BaF3 WT IC50
# T7 construct: expressed in transfected cells; host or cells: Ba/F3 (murine pro-B cells), retroviral transduction, puromycin selection, maintained with EGF
# T7 sequence (P00533 25-1210): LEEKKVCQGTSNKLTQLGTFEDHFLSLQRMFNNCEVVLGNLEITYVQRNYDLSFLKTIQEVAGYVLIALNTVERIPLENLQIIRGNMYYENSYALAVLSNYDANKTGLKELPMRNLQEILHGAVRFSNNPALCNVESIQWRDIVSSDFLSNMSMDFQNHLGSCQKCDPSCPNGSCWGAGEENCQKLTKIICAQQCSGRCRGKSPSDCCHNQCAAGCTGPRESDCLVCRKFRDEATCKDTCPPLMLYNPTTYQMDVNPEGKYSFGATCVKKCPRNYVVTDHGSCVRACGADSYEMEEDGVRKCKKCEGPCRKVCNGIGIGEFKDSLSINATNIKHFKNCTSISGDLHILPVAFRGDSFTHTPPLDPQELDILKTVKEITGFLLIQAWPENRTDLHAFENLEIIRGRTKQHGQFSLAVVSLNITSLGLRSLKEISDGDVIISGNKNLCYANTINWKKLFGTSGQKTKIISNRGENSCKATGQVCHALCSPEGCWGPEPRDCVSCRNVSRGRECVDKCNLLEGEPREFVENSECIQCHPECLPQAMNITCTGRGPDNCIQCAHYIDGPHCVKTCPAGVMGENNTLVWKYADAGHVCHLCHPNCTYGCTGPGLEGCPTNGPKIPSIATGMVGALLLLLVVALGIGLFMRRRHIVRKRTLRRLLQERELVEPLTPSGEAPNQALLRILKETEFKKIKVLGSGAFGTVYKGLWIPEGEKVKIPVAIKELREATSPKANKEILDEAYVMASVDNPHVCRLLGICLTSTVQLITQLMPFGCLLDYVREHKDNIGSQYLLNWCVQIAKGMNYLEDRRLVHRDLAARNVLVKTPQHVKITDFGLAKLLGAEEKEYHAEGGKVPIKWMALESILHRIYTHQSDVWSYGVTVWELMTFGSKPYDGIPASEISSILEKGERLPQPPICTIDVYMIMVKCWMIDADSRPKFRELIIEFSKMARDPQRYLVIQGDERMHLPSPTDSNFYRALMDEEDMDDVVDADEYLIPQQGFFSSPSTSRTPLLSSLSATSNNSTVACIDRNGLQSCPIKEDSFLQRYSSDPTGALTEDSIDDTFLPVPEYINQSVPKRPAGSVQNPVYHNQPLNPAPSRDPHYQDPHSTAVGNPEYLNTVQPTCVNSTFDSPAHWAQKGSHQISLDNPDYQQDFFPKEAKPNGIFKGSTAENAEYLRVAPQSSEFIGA
# Outline: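 This growth assay used Ba/F3 cells that depend on wild-type EGFR and are kept in EGF without IL3. Compounds were made up as 10 mM DMSO stocks and diluted 3-fold over 10 points. 120 nL went onto 600 cells/well. After 72 hours, 40 μL CellTiter-Glo was added and luminescence read on EnVision after 30 min.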
# [10] = target: T5, EGFR exon 19del (Ba/F3 cells); assay: Inhibitor activity on EGFR phosphorylation (pEGFR AlphaLISA, 2 h), Ba/F3 EGFR exon 19del; settings: read-out: Del19 IC50 (pEGFR)
# Outline: as §2
# [11] = target: T8, EGFR exon 20 FQEA Ins A763_V764 (Ba/F3 cells) (Homo sapiens, UniProt P00533, INS763FQEA); assay: Inhibitor activity on EGFR-dependent cell growth (CellTiter-Glo, 72 h), Ba/F3 EGFR exon 20 FQEA Ins; settings: read-out: BaF3 FQEA IC50
# T8 construct: expressed in transfected cells; host or cells: Ba/F3 (murine pro-B cells), retroviral transduction, puromycin selection, IL3-independent pool
# Outline: as §3
# [12] = target: T4, EGFR exon 20 NPG Ins D770_N771 (Ba/F3 cells); assay: Inhibitor activity on EGFR-dependent cell growth (CellTiter-Glo, 72 h), Ba/F3 EGFR exon 20 NPG Ins; settings: read-out: BaF3 NPG IC50
# Outline: as §1
# EGFR L858R (Ba/F3 cells) [13] = target: T6, EGFR L858R (Ba/F3 cells); assay: Inhibitor activity on EGFR-dependent cell growth (CellTiter-Glo, 72 h), Ba/F3 EGFR L858R; settings: read-out: BaF3 L858R IC50
# Outline: as §3
IC50 [1] [nM],IC50 [2] [nM],IC50 [3] [nM],IC50 [4] [nM],IC50 [5] [nM],IC50 [6] [nM],IC50 (EGFR (CUTO14 cells)) [nM],IC50 [7] [nM],IC50 [8] [nM],IC50 (EGFR L858R (Ba/F3 cells) [9]) [nM],IC50 (EGFR WT (Ba/F3 cells)) [nM],IC50 [10] [nM],IC50 [11] [nM],IC50 [12] [nM],IC50 (EGFR L858R (Ba/F3 cells) [13]) [nM],SMILES
< 100,< 100,< 100,< 100,< 100,< 100,< 100,< 100,< 100,< 100,< 100,< 100,< 100,< 100,< 100,"COc1c(F)cccc1Nc1c(-c2ccncc2F)[nH]c2c1C(=O)NCC2C[C@@H]1COCCO1 (single isomer, unassigned) [Compound 566]"
–,< 100,< 100,< 100,< 100,< 100,< 100,–,< 100,< 100,100 to 1000,< 100,< 100,< 100,< 100,"COc1c(Cl)cccc1Nc1c(-c2ccnc(C)n2)[nH]c2c1C(=O)NC[C@H]2C[C@@H]1COCCO1 (single isomer, unassigned) [Compound 570]"
–,< 100,< 100,< 100,< 100,< 100,< 100,–,< 100,< 100,100 to 1000,< 100,100 to 1000,< 100,< 100,"COc1c(Cl)cccc1Nc1c(-c2ccnc(C)n2)[nH]c2c1C(=O)NC[C@@H]2CC1COCCO1 (stereo in doubt) [Compound 551, (7S)-3-[(3-chloro-2-methoxyphenyl)amino]-7-[(2R)-1,4-dioxan-2-ylmethyl]-2-(2-methylpyrimidin-4-yl)-1H,5H,6H,7H-pyrrolo[3,2-c]pyridin-4-one]"
–,< 100,< 100,< 100,< 100,< 100,< 100,–,< 100,< 100,100 to 1000,< 100,< 100,< 100,< 100,"COc1c(Cl)cccc1Nc1c(-c2ccncc2F)[nH]c2c1C(=O)NC[C@@H]2C[C@H]1COCCO1 [Compound 481, (7S)-3-[(3-chloro-2-methoxyphenyl)amino]-7-[(2S)-1,4-dioxan-2-ylmethyl]-2-(3-fluoropyridin-4-yl)-1H,5H,6H,7H-pyrrolo[3,2-c]pyridin-4-one]"
